# What was measured:
# [1] = test system: rice YX6 mutant (OE-HIR1); assay: Herbicide spraying of plants, YX6 mutant; assay type: in vivo; settings: for rank order of resistance of the YX6 mutant (OE-HIR1) to different herbicides: comparison among herbicides sprayed
# Description: (§1) In this study, the base editor mediates genetic transformation through Agrobacterium, and the recipient variety was Nipponbare (NIP). After obtaining TO transgenic plants, the genotype of the target site was identified by PCR and sequencing, and the mutant individuals were transplanted to the field and T1 generation seeds were harvested. In order to verify the resistance of the mutant to herbicides, the harvested T1 generation seeds were dehulled, disinfected, and then inoculated on ½ MS medium with different HPPD herbicides. We selected the herbicide isoxaflutole, and the final concentration was set to 400 nM, while the tolerance concentration of wild-type Nipponbare rice to isoxaflutole during the seed germination stage was about 100 nM. Seed germination and seedling growth status were observed and counted 10 days after inoculation. […] To further confirm its resistance, we transplanted the green seedlings of YX6 into the greenhouse and sprayed them with 100 μM isoxaflutole one month later. The tolerance concentration of wild-type Nipponbare rice to isoxaflutole during the seedling stage was about 40 μM.
# (§2) To further confirm the relationship between gene LOC_Os02g09720 and the herbicide isoxaflutole, we designed two different sgRNA targets in the coding region of gene LOC_Os02g09720 and knocked out the gene using CRISPR/Cas9 in the wild-type Nipponbare rice and YX6 resistant rice backgrounds. After obtaining TO transgenic plants, the two target regions were sequenced, and homozygous knockout plants were selected and sprayed with herbicides together with wild-type plants and YX6 resistant plants. The concentration of isoxaflutole was set to 40 μM. The phenotype was observed two weeks later. […] We named this gene HIR1 (HPPD INHIBITOR RESISTANCE 1), and its encoded protein is HIR1 protein. The amino acid sequence is shown in SEQ ID No.1. The genotype of the wild-type Nipponbare plant is HIR1, and the knockout plant is hir1.
# (§3) In order to further determine the resistance strength of rice YX6 mutant (OE-HIR1), we set up three high concentration gradients of isoxaflutole to spray it (200 μM, 400 μM, 800 µM), with wild-type Nipponbare plants (HIR1) and wild-type Nipponbare HIR1 gene knockout plants (hir1) as controls. […] The tolerance range of rice YX6 mutant (OE-HIR1) to isoxaflutole may be higher, even reaching 1200-1500 μM, while the tolerance concentration of wild-type Nipponbare plants to isoxaflutole was about 40 μM, and its resistance is estimated to be increased by 30 times.
# (§4) HPPD herbicides mainly include triketones, pyrazolones, isoxazolones, diketonitriles, and benzophenones. In order to determine whether the rice YX6 mutant (OE-HIR1) is resistant to other HPPD herbicides, we selected the herbicides: mesotrione, tembotrione, an unlisted quinotrione-methyl analog (Y13287), topramezone, and pyrasulfotole, and sprayed them with wild-type Nipponbare rice as the control.
# [2] = test system: wild-type Nipponbare plants (HIR1); assay: Herbicide spraying of plants, wild-type Nipponbare; assay type: in vivo, rice
# Description: as §1, §2, §3, §4
# [3] = test system: transgenic plants (SqHIR1) in rice variety Xiushui 134; assay: Herbicide spraying of T0 transgenic seedlings overexpressing SqHIR1; assay type: in vivo; settings: 50 mg/L (139 μM) spray
# Method: (§5) Verifying the herbicide resistance of the above two genes (ZmHIR1 and SqHIR1): cloning these two genes, respectively, and overexpressing them in the rice variety Xiushui 134. The TO generation transgenic seedlings were sprayed with 50 mg/L (139 μM) herbicide isoxaflutole for resistance identification, and the results are shown in FIGS. 10-11.
# [4] = test system: wild-type (WT) rice plants, variety Xiushui 134; assay: Herbicide spraying for resistance identification, wild-type Xiushui 134; assay type: in vivo; settings: 50 mg/L (139 μM) spray
# Method: as §5
# [5] = test system: transgenic plant numbered YX6 (T1 generation seeds); assay: Seed germination on ½ MS medium with isoxaflutole, YX6 T1 seeds; assay type: in vivo, rice; settings: 400 nM in ½ MS medium, 10 days after inoculation
# Description: as §1
# [6] = test system: wild-type Nipponbare HIR1 knockout plant hir1 (NIP); assay: Herbicide spraying of plants, HIR1 knockout in wild-type background; assay type: in vivo, rice; settings: 40 μM spray, two weeks later, LOC_Os02g09720 knockout in wild-type background
# Description: as §2
# [7] = test system: transgenic plants (ZmHIR1) in rice variety Xiushui 134; assay: Herbicide spraying of T0 transgenic seedlings overexpressing ZmHIR1; assay type: in vivo; settings: 50 mg/L (139 μM) spray
# Method: as §5
# [8] = test system: wild-type Nipponbare rice; assay: Seed germination on ½ MS medium with isoxaflutole, wild-type Nipponbare; assay type: in vivo
# Description: as §1
# [9] = test system: resistant plant YX6 HIR1 knockout plant hir1 (YX6); assay: Herbicide spraying of plants, HIR1 knockout in YX6 background; assay type: in vivo, rice; settings: 40 μM spray, two weeks later, LOC_Os02g09720 knockout in YX6 background
# Description: as §2
# [10] = 400 μM spray, YX6 mutant (OE-HIR1)
structure (smiles),measurement,setting,value
Cc1nn(C)c(O)c1C(=O)c1ccc(C(F)(F)F)cc1S(C)(=O)=O [pyrasulfotole],phenotype after spraying,[1]; [10],had no phytotoxicity and could grow normally without bleaching
same,rank order of resistance of the YX6 mutant (OE-HIR1) to different herbicides,[1],sulfone pyrazone>topramezone≈tembotrione>mesotrione≈quinotrione-methyl analog
same,phenotype after spraying,"[2]; 400 μM spray, wild-type plants",had all bleached and suffered certain phytotoxicity
CS(=O)(=O)c1ccc(C(=O)C2C(=O)CCCC2=O)c([N+](=O)[O-])c1 [mesotrione],phenotype after spraying,[1]; [10],had no phytotoxicity and could grow normally without bleaching
same,rank order of resistance of the YX6 mutant (OE-HIR1) to different herbicides,[1],sulfone pyrazone>topramezone≈tembotrione>mesotrione≈quinotrione-methyl analog
same,phenotype after spraying,"[2]; 400 μM spray, wild-type plants",had all bleached and suffered certain phytotoxicity
CS(=O)(=O)c1cc(C(F)(F)F)ccc1C(=O)c1cnoc1C1CC1 [isoxaflutole],phenotype after spraying,[3],"basically remained green, with normal plant height and good growth status"
same,phenotype after spraying,[4],"become dwarfed, yellow, and dry"
same,phenotype after spraying,"[1]; 40 μM spray, two weeks later, YX6 plants",not affected and grew normally
same,phenotype after spraying,"[1]; 100 μM spray, after two weeks, YX6",not affected at all
same,phenotype after spraying,"[1]; 800 μM spray, YX6 mutant (OE-HIR1)",could still grow normally
same,resistance increase versus wild-type Nipponbare,"[1]; YX6 mutant (OE-HIR1) vs wild type tolerance about 40 μM, estimated",~30 times
same,tolerance range,"[1]; YX6 mutant (OE-HIR1), 'may be higher, even reaching'",1200 to 1500 µM
same,phenotype after spraying,"[2]; 40 μM spray, two weeks later, wild-type plants","bleaching and wilting, but still survived"
same,phenotype after spraying,"[2]; 100 μM spray, after two weeks, wild-type Nipponbare",completely bleached and withered
same,tolerance concentration during the seedling stage,"[2]; wild-type Nipponbare, spraying",about 40 μM
same,seed germination and seedling growth status,[5],seedlings remained green normally
same,phenotype after spraying,[6],"bleached, withered, and died gradually"
same,phenotype after spraying,[7],"basically remain green, with normal plant height and good growth status"
same,seed germination and seedling growth status,"[8]; 400 nM in ½ MS medium, 10 days after inoculation, wild-type Nipponbare",obvious bleaching symptoms of phytotoxicity
same,tolerance concentration during the seed germination stage,"[8]; wild-type Nipponbare rice, seed germination stage",about 100 nM
same,phenotype after spraying,[9],"bleached, withered, and died gradually"
CS(=O)(=O)c1ccc(C(=O)C2C(=O)CCCC2=O)c(Cl)c1COCC(F)(F)F [tembotrione],phenotype after spraying,[1]; [10],had no phytotoxicity and could grow normally without bleaching
same,rank order of resistance of the YX6 mutant (OE-HIR1) to different herbicides,[1],sulfone pyrazone>topramezone≈tembotrione>mesotrione≈quinotrione-methyl analog
same,phenotype after spraying,"[2]; 400 μM spray, wild-type plants",had all bleached and suffered certain phytotoxicity
Cc1c(C(=O)c2cnn(C)c2O)ccc(S(C)(=O)=O)c1C1=NOCC1 [topramezone],phenotype after spraying,[1]; [10],had no phytotoxicity and could grow normally without bleaching
same,rank order of resistance of the YX6 mutant (OE-HIR1) to different herbicides,[1],sulfone pyrazone>topramezone≈tembotrione>mesotrione≈quinotrione-methyl analog
same,phenotype after spraying,"[2]; 400 μM spray, wild-type plants",had all bleached and suffered certain phytotoxicity

# Reference: patent US20250250581A1, “HERBICIDE-RESISTANT POLYPEPTIDE AND APPLICATION THEREOF” (SHANDONG SHUNFENG BIOTECHNOLOGY CO.LTD., priority 2022, published 2025)
